In brackets after ≈: the same amount, converted by molar mass. Where two headings read alike, the source gives them in different places. Where a SMILES comes first, the peptide text is derived from it. [ ]: non-standard residue; d: D form.

For assay [1], the system named is Klebsiella pneumoniae. The settings on record: for MIC50 fold change: Klebsiella pneumoniae (5 isolates).
In assay [2] the test system is Enterococcus faecalis. The assay is described as follows: microbe, parasite or virus in culture. It counts as cell-based. The settings on record: for MIC50 fold change: Enterococcus faecalis (2 isolates).
The test system of assay [3] is Enterococcus faecium. The assay is described as follows: microbe, parasite or virus in culture. It counts as cell-based. The settings on record: for MIC50 fold change: Enterococcus faecium (3 isolates).
Assay [4] has as its system Pseudomonas aeruginosa. The assay is described as follows: microbe, parasite or virus in culture. It counts as cell-based. To be noted: for MIC50 fold change: Pseudomonas aeruginosa (5 isolates).
Assay [5] has as its system Escherichia coli. The experiment in a line: microbe, parasite or virus in culture. It counts as cell-based. The settings on record: for MIC50 fold change: Escherichia coli (5 isolates).
The subject of assay [6] is E. cloacae species complex. The experiment in a line: microbe, parasite or virus in culture. It counts as cell-based, Enterobacter cloacae. The settings on record: for MIC50 fold change: Enterobacter spp. (5 isolates).
For assay [7], the system named is Acinetobacter baumannii-calcoaceticus complex. The experiment in a line: microbe, parasite or virus in culture. To be noted: for MIC50 fold change: Acinetobacter spp. (5 isolates). It counts as cell-based.
Assay [8] deals with Streptococcus pneumoniae. The experiment in a line: microbe, parasite or virus in culture. The settings on record: for MIC50 fold change: Streptococcus pneumoniae (5 isolates). It counts as cell-based.
In assay [9] the test system is Staphylococcus aureus. The experiment in a line: microbe, parasite or virus in culture. It counts as cell-based. The settings on record: for MIC50 fold change: relative to P194-acetate, Staphylococcus aureus (5 isolates).

For the compound RTVRATCI [Peptide D8-C5A], the MIC50 fold change in assay [1] (relative to D8-acetate) was greater than 8; in assay [2] (relative to D8-acetate) it was greater than 4; in [3] (relative to D8-acetate) it was greater than 16; in assay [4] (relative to D8-acetate), greater than 2; in assay [5] (relative to D8-acetate), greater than 16; in assay [6] (relative to D8-acetate) it was greater than 4. For the same compound, in assay [7] (relative to D8-acetate), the MIC50 fold change is listed as greater than 32.
Turning to ATVRCTCI [Peptide D8-R1A], the MIC50 fold change in [1] (relative to D8-acetate) turned out to be 4; in assay [2] (relative to D8-acetate) it was 2; in [3] (relative to D8-acetate), 2; in assay [4] (relative to D8-acetate), 2; in [5] (relative to D8-acetate), 4; in [6] (relative to D8-acetate), 2. Further, the MIC50 fold change in assay [7] (relative to D8-acetate) was 4.
For `CC[C@@H](C)[C@@H](NC(=O)[C@@H](CS)NC(=O)[C@@H](CCSC)NC(=O)[C@@H](CS)NC(=O)[C@@H](CCCNC(=N)N)NC(=O)[C@H](NC(=O)[C@H](NC(=O)[C@H](N)CCCNC(=N)N)[C@H](C)O)C(C)C)C(=O)O` [P182 F, RTVRCMCI] (H-[dR][dT][dV][dR][dC][dM][dC][dI]-OH; N-terminus and C-terminus assumed), the MIC in [8] was 32 µg/mL (≈ 32.6 µM); in [2], 8 µg/mL (≈ 8.15 µM); in [3] it was 8 µg/mL (≈ 8.15 µM); in [7] (-calcoaceticus complex) it was 16 µg/mL (≈ 16.3 µM).
Consider RTVACTCI [Peptide D8-R4A], for which the MIC50 fold change in [1] (relative to D8-acetate) is reported as greater than 8; in assay [2] (relative to D8-acetate), greater than 4; in assay [3] (relative to D8-acetate), 8; in assay [4] (relative to D8-acetate) it was greater than 2; in [5] (relative to D8-acetate) it was greater than 16; in [6] (relative to D8-acetate), greater than 4. Also, in assay [7] (relative to D8-acetate), the MIC50 fold change is greater than 32.
Consider RAVRCRCI [Peptide P194-T2A], for which the MIC50 fold change is given as 2 in assay [1] (relative to P194-acetate); 2 in assay [8] (relative to P194-acetate); 4 in [2] (relative to P194-acetate); 2 in assay [3] (relative to P194-acetate); 2 in assay [9]; greater than 2 in assay [4] (relative to P194-acetate). Besides, the MIC50 fold change in assay [5] (relative to P194-acetate), in assay [6] (relative to P194-acetate) and in assay [7] (relative to P194-acetate) was 0.5 in each case.
In the case of RTVRCACI [Peptide D8-T6A], the MIC50 fold change in [1] (relative to D8-acetate) was determined as 2; in [8] (relative to D8-acetate), 1; in assay [2] (relative to D8-acetate), 1; in assay [3] (relative to D8-acetate) it was 1; in assay [4] (relative to D8-acetate) it was 2; in [5] (relative to D8-acetate), 1. The values for the MIC50 fold change in [6] (relative to D8-acetate) and in assay [7] (relative to D8-acetate) were 0.5 and 2, respectively.
As for RTVRCTAI [Peptide D8-C7A], the MIC50 fold change is listed as greater than 8 in assay [1] (relative to D8-acetate); greater than 4 in assay [2] (relative to D8-acetate); 16 in [3] (relative to D8-acetate); greater than 2 in assay [4] (relative to D8-acetate); greater than 16 in [5] (relative to D8-acetate); greater than 4 in [6] (relative to D8-acetate). In addition, the MIC50 fold change in [7] (relative to D8-acetate) is recorded as greater than 32.
In the case of `CC[C@@H](C)[C@@H](NC(=O)[C@@H](CS)NC(=O)[C@@H](CCSC)NC(=O)[C@@H](CS)NC(=O)[C@@H](CCCNC(=N)N)NC(=O)[C@H](NC(=O)[C@H](NC(=O)[C@H](N)CCCNC(=N)N)[C@H](C)O)C(C)C)C(=O)O` [P182 A, RTVRCMCI] (H-[dR][dT][dV][dR][dC][dM][dC][dI]-OH; N-terminus and C-terminus assumed), the MIC in assay [8] was 32 µg/mL (≈ 32.6 µM); in assay [2] it was 8 µg/mL (≈ 8.15 µM); in assay [3], 8 µg/mL (≈ 8.15 µM); in [5], 16 µg/mL (≈ 16.3 µM); in assay [7] (-calcoaceticus complex) it was 16 µg/mL (≈ 16.3 µM).
Turning to `CC[C@@H](C)[C@@H](NC(=O)[C@@H](CS)NC(=O)[C@@H](CCCNC(=N)N)NC(=O)[C@@H](CS)NC(=O)[C@@H](CCCNC(=N)N)NC(=O)[C@H](NC(=O)[C@@H](Cc1ccc(O)cc1)NC(=O)[C@H](N)CCCNC(=N)N)C(C)C)C(=O)O` [P194 F, RYVRCRCI] (H-[dR][dY][dV][dR][dC][dR][dC][dI]-OH; N-terminus and C-terminus assumed), the MIC in assay [8] was determined as 32 µg/mL (≈ 30 µM); in [2], 8 µg/mL (≈ 7.49 µM); in assay [3] it was 4 µg/mL (≈ 3.74 µM).
AYVRCRCI [Peptide P194-R1A]: the MIC50 fold change was 1 in assay [1] (relative to P194-acetate); 1 in assay [8] (relative to P194-acetate); 1 in assay [2] (relative to P194-acetate); 2 in assay [3] (relative to P194-acetate); 0.5 in assay [9]; 1 in [4] (relative to P194-acetate). In addition, the MIC50 fold change in assay [5] (relative to P194-acetate) is 0.5; in [6] (relative to P194-acetate), 0.5; in assay [7] (relative to P194-acetate) it was 1.
For the compound RTARCTCI [Peptide D8-V3A], the MIC50 fold change is reported as greater than 8 in assay [1] (relative to D8-acetate); greater than 4 in assay [2] (relative to D8-acetate); 8 in assay [3] (relative to D8-acetate); greater than 2 in [4] (relative to D8-acetate); 16 in assay [5] (relative to D8-acetate); greater than 4 in assay [6] (relative to D8-acetate). Also, the MIC50 fold change in assay [7] (relative to D8-acetate) is recorded as 32.
On to `CC[C@@H](C)[C@@H](NC(=O)[C@@H](CS)NC(=O)[C@@H](CCCNC(=N)N)NC(=O)[C@@H](CS)NC(=O)[C@@H](CCCNC(=N)N)NC(=O)[C@H](NC(=O)[C@@H](Cc1ccc(O)cc1)NC(=O)[C@H](N)CCCNC(=N)N)C(C)C)C(=O)O` [P194 A, RYVRCRCI] (H-[dR][dY][dV][dR][dC][dR][dC][dI]-OH; N-terminus and C-terminus assumed), for which the MIC50 in assay [1] worked out at 4 µg/mL (≈ 3.74 µM); in [8], 32 µg/mL (≈ 30 µM); in assay [2] it was 2 µg/mL (≈ 1.87 µM); in [3] it was 1 µg/mL (≈ 0.936 µM); in [9], 32 µg/mL (≈ 30 µM); in assay [4], 32 µg/mL (≈ 30 µM). Moreover, the MIC50 in assay [5] is 8 µg/mL (≈ 7.49 µM); in [6] (species complex) it was 16 µg/mL (≈ 15 µM); in assay [7] (-calcoaceticus complex), 4 µg/mL (≈ 3.74 µM). Besides, the MIC in assay [2] is 4 µg/mL (≈ 3.74 µM); in [3] it was 2 µg/mL (≈ 1.87 µM); in [9], 32 µg/mL (≈ 30 µM).
With RTVRCTCA [Peptide D8-I8A], the MIC50 fold change came out at 4 in assay [1] (relative to D8-acetate); 4 in [2] (relative to D8-acetate); 4 in assay [3] (relative to D8-acetate); 2 in [4] (relative to D8-acetate); 4 in assay [5] (relative to D8-acetate); 1 in assay [6] (relative to D8-acetate). Also, the MIC50 fold change in assay [7] (relative to D8-acetate) is recorded as 2.
As for RAVRCTCI [Peptide D8-T2A], the MIC50 fold change in [1] (relative to D8-acetate) is recorded as 2; in [2] (relative to D8-acetate), 2; in assay [3] (relative to D8-acetate), 2; in [4] (relative to D8-acetate), greater than 2; in assay [5] (relative to D8-acetate), 2; in [6] (relative to D8-acetate), 1. Moreover, the MIC50 fold change in [7] (relative to D8-acetate) is 2.

The values are drawn from US20260078158A1, “COMPOSITIONS COMPRISING CXCL10-DERIVED PEPTIDES AND METHODS OF USE THEREOF” (priority 2022, published 2026).
